Laboratory results as given in ChEMBL document CHEMBL2074176, “Multidrug resistance protein 1 (MRP1, ABCC1) mediates resistance to mitoxantrone via glutathione-dependent drug efflux” (Mol Pharmacol, 2006).
pIC50: −log10 of the molar value.

Experiments:
Type in all cases: functional, cell-based
[1] = biological target: T1, Multidrug resistance-associated protein 1 (Homo sapiens, UniProt P33527); assay: TP_TRANSPORTER: cell accumulation in MCF7/MRP1-M24 cells
[2] = biological target: T1, Multidrug resistance-associated protein 1; assay: TP_TRANSPORTER: transport in etoposide-selected MCF7 cells
[3] = biological target: T1, Multidrug resistance-associated protein 1; assay: TP_TRANSPORTER: cell accumulation in MCF7/MRP1-M6 cells
[4] = biological target: T1, Multidrug resistance-associated protein 1; assay: TP_TRANSPORTER: ATP- and GSH-dependent transport in MCF7/MRP1-10 cells
[5] = biological target: T1, Multidrug resistance-associated protein 1; assay: TP_TRANSPORTER: cell accumulation in MCF7/MRP1-10 cells

T1 sequence (P33527 whole entry): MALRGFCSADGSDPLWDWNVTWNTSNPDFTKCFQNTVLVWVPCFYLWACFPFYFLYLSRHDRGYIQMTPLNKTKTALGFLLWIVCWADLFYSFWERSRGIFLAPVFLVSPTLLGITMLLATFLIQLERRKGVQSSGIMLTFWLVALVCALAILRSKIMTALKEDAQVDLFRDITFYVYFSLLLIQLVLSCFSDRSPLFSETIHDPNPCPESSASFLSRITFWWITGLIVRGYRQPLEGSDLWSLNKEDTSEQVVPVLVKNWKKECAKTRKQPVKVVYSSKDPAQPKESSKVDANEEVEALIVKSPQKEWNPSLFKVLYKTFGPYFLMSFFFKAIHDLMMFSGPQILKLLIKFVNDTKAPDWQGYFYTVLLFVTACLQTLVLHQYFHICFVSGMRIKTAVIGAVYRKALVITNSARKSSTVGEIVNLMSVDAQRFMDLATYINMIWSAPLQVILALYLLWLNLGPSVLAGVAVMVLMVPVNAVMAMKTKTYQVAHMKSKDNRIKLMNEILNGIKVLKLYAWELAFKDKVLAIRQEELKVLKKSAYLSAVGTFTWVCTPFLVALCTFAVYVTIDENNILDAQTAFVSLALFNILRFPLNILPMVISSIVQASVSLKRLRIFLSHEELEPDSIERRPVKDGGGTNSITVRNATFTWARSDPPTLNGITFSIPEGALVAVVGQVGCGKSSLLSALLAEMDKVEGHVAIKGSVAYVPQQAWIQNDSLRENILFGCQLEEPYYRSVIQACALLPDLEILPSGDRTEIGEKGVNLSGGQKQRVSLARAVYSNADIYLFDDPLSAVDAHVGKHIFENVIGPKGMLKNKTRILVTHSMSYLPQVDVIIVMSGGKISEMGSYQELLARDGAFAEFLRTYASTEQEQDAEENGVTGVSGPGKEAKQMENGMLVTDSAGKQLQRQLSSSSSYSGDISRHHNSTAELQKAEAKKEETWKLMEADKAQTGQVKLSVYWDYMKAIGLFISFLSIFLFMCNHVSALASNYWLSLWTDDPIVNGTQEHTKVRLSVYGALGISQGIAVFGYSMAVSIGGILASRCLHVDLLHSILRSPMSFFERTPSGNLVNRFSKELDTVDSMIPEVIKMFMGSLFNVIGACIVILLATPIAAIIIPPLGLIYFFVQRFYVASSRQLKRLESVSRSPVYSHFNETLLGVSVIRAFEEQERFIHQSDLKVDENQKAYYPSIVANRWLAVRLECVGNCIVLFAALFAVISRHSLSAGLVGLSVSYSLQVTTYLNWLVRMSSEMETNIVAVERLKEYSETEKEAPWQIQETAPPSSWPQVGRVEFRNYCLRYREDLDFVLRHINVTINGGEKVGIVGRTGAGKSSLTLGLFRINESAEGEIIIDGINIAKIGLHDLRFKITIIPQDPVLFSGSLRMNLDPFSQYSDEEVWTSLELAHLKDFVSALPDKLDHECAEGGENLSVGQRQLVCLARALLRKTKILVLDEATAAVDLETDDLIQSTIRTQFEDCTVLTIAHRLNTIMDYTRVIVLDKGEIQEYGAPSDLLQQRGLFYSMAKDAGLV

O=C1c2c(O)ccc(O)c2C(=O)c2c(NCCNCCO)ccc(NCCNCCO)c21 [MITOXANTRONE]
pIC50 [1]: 8.82
Activity [2]: substrate [+]
pIC50 [3]: 8.82
Activity [4]: substrate [+]
pIC50 [5]: 8.72
